# Residues, ends and D or L forms follow the SMILES beside them.
# How the values were obtained:
# [1] = tested on: S. aureus ATCC 29213; assay: microbe, parasite or virus in culture; type: cell-based; conditions: ATCC 29213
# [2] = tested on: Caco-2; assay: Cytotoxicity, CCK-8; type: cell-based, human
# Method: (§1) The cytotoxicity of selected AMPs to human laryngeal carcinoma epithelial cell (HEp-2) and colorectal adenocarcinoma cell (Caco-2) lines was evaluated using the CCK-8 method as previously described.[55] The cells were cultured in high-glucose dulbecco’s modified eagle medium (DMEM) supplemented with 10% fetal bovine serum (FBS) and 1% penicillin-streptomycin. Cells were inoculated in 96-well sterile microtiter plate at 5000 cells/100 μL. After cultured (37℃, 5%CO2) for 24 h, cells were treated with AMPs at concentrations ranging from 8 to 128 μg/mL for another 48 h. Afterward, the culture medium was replaced by fresh DMEM medium containing 10% CCK-8 and incubated for 1 h. The absorbance of the solution was measured at 450 nm by a microplate reader. Cell viability was calculated as: % cell viability = [(Abssample - Absblank)/(Absnegative - Absblank)]×100%. Each experiment was carried out with three replicates.
# [3] = tested on: HEp-2; assay: Cytotoxicity, CCK-8; type: cell-based, human
# Method: as §1
# [4] = tested on: E. faecalis ES01; assay: microbe, parasite or virus in culture; type: cell-based; conditions: ES01
# Method: (§2) Bacterial strains and growth conditions: All Gram-negative and Gram-positive bacterial strains (Supplementary Table S8) were cultured in Luria-Bertani (LB) or trypticase soy broth (TSB) agar plates, respectively, and incubated overnight at 37 °C unless specifically indicated. A single colony of the tested bacterial strains was inoculated into medium broth with shaking at 220 rpm for further experiments.
# (§3) Minimal inhibitory concentrations: Antimicrobial susceptibility testing was performed by broth microdilution method for AMPs against Gram-positive and Gram-negative pathogens above mentioned, following the methods of document CLSI M100-ED34.[43] The MICs were defined as the lowest concentrations that inhibit visible growth of the tested bacteria. E. coli ATCC 25,922 and S. aureus ATCC 29,213 were served as quality controls.
# [5] = tested on: E. faecalis J2; assay: microbe, parasite or virus in culture; type: cell-based; conditions: J2
# Method: as §2, §3
# [6] = tested on: S. agalactiae DL03; assay: microbe, parasite or virus in culture; type: cell-based; conditions: DL03
# Method: as §2, §3
# [7] = tested on: K. pneumoniae 9-1; assay: microbe, parasite or virus in culture; type: cell-based; conditions: 9-1
# Method: as §2, §3
# [8] = tested on: S. aureus M147-2; assay: microbe, parasite or virus in culture; type: cell-based; conditions: M147-2
# Method: as §2, §3
# [9] = tested on: S. aureus M92-1; assay: microbe, parasite or virus in culture; type: cell-based; conditions: M92-1
# Method: as §2, §3
# [10] = tested on: E. faecium HFY01; assay: microbe, parasite or virus in culture; type: cell-based; conditions: HFY01
# Method: as §2, §3
# [11] = tested on: E. coli ATCC 25922; assay: microbe, parasite or virus in culture; type: cell-based; conditions: ATCC 25922
# Method: as §2, §3
# [12] = tested on: S. aureus YZSA-15; assay: microbe, parasite or virus in culture; type: cell-based; conditions: YZSA-15
# Method: as §2, §3
# [13] = tested on: A. baumannii AB11; assay: microbe, parasite or virus in culture; type: cell-based; conditions: AB11
# Method: as §2, §3
# [14] = tested on: E. faecalis JH2-2; assay: microbe, parasite or virus in culture; type: cell-based; conditions: JH2-2
# Method: as §2, §3
# [15] = tested on: P. aeruginosa PA14; assay: microbe, parasite or virus in culture; type: cell-based; conditions: PA14
# Method: as §2, §3
# [16] = tested on: S. suis SH0918; assay: microbe, parasite or virus in culture; type: cell-based
# Method: as §2, §3
# [17] = tested on: S. aureus YZSA-24; assay: microbe, parasite or virus in culture; type: cell-based; conditions: YZSA-24
# Method: as §2, §3
# [18] = tested on: E. faecium QF31; assay: microbe, parasite or virus in culture; type: cell-based; conditions: QF31
# Method: as §2, §3
# [19] = tested on: A. baumannii 7979; assay: microbe, parasite or virus in culture; type: cell-based; conditions: 7979
# Method: as §2, §3
# [20] = tested on: S. pyogenes DL02; assay: microbe, parasite or virus in culture; type: cell-based; conditions: DL02
# Method: as §2, §3
# [21] = tested on: S. aureus YZSA-21; assay: microbe, parasite or virus in culture; type: cell-based; conditions: YZSA-21
# Method: as §2, §3
# [22] = tested on: E. faecium MC38; assay: microbe, parasite or virus in culture; type: cell-based; conditions: MC38
# Method: as §2, §3
# [23] = tested on: mouse red blood cells; assay: Haemolysis assay; type: cell-based; conditions: MIC values against S. aureus ATCC 29213
# Method: Red blood cells (RBCs) from Kunming mice were used to evaluate the hemolytic toxicity of the selected AMPs. Fresh red blood cells were collected from mice and washed until the supernatant was completely cleared. Added 19-fold volume of PBS to prepare 2% RBC suspension. […] Afterward, the mixture was centrifuged at 1500 rpm for 10 min. Then transferred 30 µL supernatant to 96-well plate containing 70 µL PBS. The absorbance of the sample was measured at 450 nm by a microplate reader. PBS and 2% Triton X-100 was used as negative and positive control, respectively. The experiment was performed in triplicate and the hemolysis activity was calculated by the formula hemolysis = [(Absorbancesample- AbsorbancePBS)/(AbsorbanceTriton x-100-AbsorbancePBS)]×100%.
# [24] = tested on: S. suis P1/7; assay: microbe, parasite or virus in culture
# Method: as §2
# as §3, with “bacteria.” for “bacteria. E. coli ATCC 25,922 and S. aureus ATCC 29,213 were served as quality controls.”
# [25] = tested on: S. enteritis S1; assay: organism not typed; type: cell-based
# Method: as §2, §3
# [26] = tested on: four Gram-positive and five Gram-negative bacteria, including ESKAPE pathogens; type: cell-based
# Method: as §2, §3
# [27] = tested on: S. aureus clinical isolates (n = 40); type: cell-based
# Method: as §2, §3
smiles,measurement,setting,value
CC(C)C[C@H](NC(=O)[C@H](CCCCN)NC(=O)[C@H](Cc1c[nH]c2ccccc12)NC(=O)[C@H](CC(C)C)NC(=O)[C@H](CC(C)C)NC(=O)[C@H](CCCCN)NC(=O)[C@H](Cc1c[nH]c2ccccc12)NC(=O)[C@H](Cc1c[nH]c2ccccc12)NC(=O)[C@H](CCCCN)NC(=O)[C@H](CCCCN)NC(=O)[C@H](C)N)C(=O)N[C@@H](Cc1c[nH]c2ccccc12)C(=O)N[C@@H](CCCCN)C(=O)N[C@@H](CCCCN)C(=O)N[C@@H](C)C(=O)N[C@@H](CCCCN)C(=O)O [AMP_S4] (H-AKKWWKLLWKLWKKAK-OH),MIC,[1],4 µg/mL
same,CC50,[2]; 48 h,15.82 µg/mL
same,CC50/MIC,"[2]; Caco-2, MIC values against S. aureus ATCC 29213",3.96
same,CC50,[3]; 48 h,35.16 µg/mL
same,CC50/MIC,"[3]; HEp-2, MIC values against S. aureus ATCC 29213",8.8
same,MIC,[4],4 µg/mL
same,MIC,[5],8 µg/mL
same,MIC,[6],4 µg/mL
same,MIC,[7],16 µg/mL
same,MIC,[8],4 µg/mL
same,MIC,[9],4 µg/mL
same,MIC,[10],4 µg/mL
same,MIC,[11],8 µg/mL
same,MIC,[12],4 µg/mL
same,MIC,[13],2 µg/mL
same,MIC,[14],8 µg/mL
same,MIC,[15],8 µg/mL
same,MIC,[16],4 µg/mL
same,MIC,[17],16 µg/mL
same,MIC,[18],4 µg/mL
same,MIC,[19],4 µg/mL
same,MIC,[20],4 µg/mL
same,MIC,[21],4 µg/mL
same,MIC,[22],4 µg/mL
same,HC50/MIC,[23],4.56
same,MIC,[24],4 µg/mL
same,MIC,[25],16 µg/mL
same,"MIC values, range",[26],2 to 16 µg/mL
same,"MICs, range over panel",[26],2 to 16 µg/mL
same,"MICs, range over clinical isolates",[27],4 to 32 µg/mL
